What was measured:
[1] = Collagen-induced arthritis inhibitory test 1; format: in vivo, mouse (DBA/1j, male); settings: for severity of arthritis (arthritic score) versus control group / onset of arthritis delayed until (days after the booster immunization): 10 mg/kg oral daily; for onset of arthritis delayed until (days after the booster immunization): control onset on 28th day; for effect on collagen-induced arthritis inhibitory test (conclusion): experiment 4, 10 mg/kg oral
Protocol: Experiment 4: Collagen-induced arthritis inhibitory test 1
Collagen-induced arthritis inhibitory test is an experimental model for rheumatoid arthritis reported by Trethan, D. E. et al. [cf. […] J. Immunol., 140, 78-83 (1988)].
Collagen-induced arthritis inhibitory test was carried out according to Kakimoto, K. et al. (cf. above reference of Kakimoto, K. et al.) with slight modification. Solubilized bovine cartilage type II collagen (product of Elastine Products, U.S.A.) was emulsified in complete Freund's adjuvant (product of DIFCO Lab., U.S.A.). Male mice of DBA/1j strain (6 week-old; product of Nippon Charles River, Japan) were immunized by injection at the base of the tail with 150 μg of the emulsified collagen. After twenty one days from the immunization, arthritis was induced by a booster immunization of 150 μg of the emulsified collagen prepared in the same manner as above at the base of the tail again. A test compound was orally administered daily at the dose of 10 mg/kg from the first immunization. Mice were observed daily 5 days after the booster immunization for the onset of arthritis, and an arthritic score was derived by grading the severity of involvement of each paw five scales (0-4) according to the method of Wood, F. D. et al. [cf. Int. Arch. Allergy Appl. The severity of arthritis was estimated by the sum of the scores of all 4 paws, and the onset of the disease was determined when score 1 was observed.

[2] = molecular target: peripheral (ω3) benzodiazepine (BZ) receptor (Rattus norvegicus, UniProt P16257); test: BZω3 (peripheral-type) benzodiazepine receptor binding assay
Protocol: Experiment 1: Central (ω1, ω2) and peripheral (ω3) benzodiazepine (BZ) receptor binding assays
BZω1 and BZω2 receptor binding assays were carried out according to the method of Stephens, D. N. et al. [cf.
Receptor membrane fractions for ω1, ω2 and ω3 were prepared from the cerebellum (ω1), spinal cord (ω1) or kidney (ω3) in 7-8 week old male rats of Wistar strain by the procedure described below.
After the cerebellum or spinal cord was homogenized with 20 volumes of ice-cold 50 mM Tris-citrate buffer (pH 7.1), the homogenate was centrifuged for 15 minutes at 40,000 g. The pellet obtained was washed 4 times by the same procedure, frozen and stored for 24 hours at -60° C. The resulting pellet, after being thawed, washed with the buffer and centrifuged, was suspended in the buffer I for the binding assay (50 mM Tris-HCl buffer containing 120 mM NaCl, 5 mM KCl, 2 mM CaCl2 and 1 mM MgCl2 ; pH 7.4) and the suspension thus obtained (containing 1 g wet tissue/40 ml) was used for the BZω1 and BZω2 receptor binding assays. On the other hand, the kidney was homogenized with 20 volumes of the ice-cold buffer II for the binding assay (50 mM Na--K phosphate buffer containing 100 mM NaCl; pH 7.4), filtered through 4 sheets of gauze, and centrifuged for 20 minutes at 40,000 g. The pellet obtained was suspended in the buffer II and the suspension (containing 1 g wet tissue/100 ml) was used for the binding assay as BZω3 receptor membrane source.
Flumazenil (final concentration: 0.3 nM for (ω1 and 1 nM for ω2) and flunitrazepam (final concentration: 10 μM) were used for the BZω1 or BZω2 receptor binding assays as the isotope-labeled and unlabeled ligands, respectively. For the BZω3 receptor binding assay, [^3 H] 4'-chlorodiazepam (7-chloro-1,3-dihydro-1-methyl-5-(4-chlorophenyl)-2H-1,4-benzodiazepin-2-one) (final concentration: 0.5 nM) and diazepam (final concentration: 100 μM) were used as the isotope-labeled and unlabeled ligands, respectively. Incubation was performed for 30 minutes at 37° C. in the BZω1 or BZω2 receptor binding assays, and for 150 minutes at 0° C. in the BZω3 receptor binding assay. The BZω1 or BZω2 receptor binding assays were carried out in the presence of bicuculline (final concentration: 100 μM).
The binding assay was performed by the following procedure. After adding each test compound at certain known concentrations, a [^3 H] ligand and the buffer I or II to each test tube, each assay was started by addition of membrane preparation (total volume of 1 ml). After incubation, the assay was terminated by filtration with suction through a Whatman GF/B glass fiber filter using a cell harvester (Brandel, USA). The filters were rapidly washed 3 times with 5 ml of ice-cold 50 mM Tris-HCl buffer (pH 7.7) for ω1 and ω2, or the buffer II forω3, and transferred to scintillation vials containing 10 ml liquid scintillation cocktail (ACS-II, Amersham, USA). After a few hours, retained radioactivity was counted by a liquid scintillation spectrometer. Specific binding of [^3 H] ligands was calculated as the difference between amounts of radioactivity bound in the presence and absence of excess unlabeled ligands.

[3] = known from literature; cited from earlier work
[4] = Collagen-induced arthritis inhibitory test 2; format: in vivo, mouse (DBA/1j, female); settings: for suppression of arthritis as compared with control: Example 165: at least until 34th day; for effect on collagen-induced arthritis inhibitory test (conclusion): experiment 5, 10 mg/kg oral
Protocol: Experiment 5: Collagen-induced arthritis inhibitory test 2
Collagen-induced arthritis inhibitory test was carried out according to Kakimoto, K. et al. (cf. above reference of Kakimoto, K. et al.) with slight modification. Type II collagen from bovine joints (product of the Collagen Research Center, Japan) was emulsified in complete Freund's adjuvant (product of DIFCO Lab., U.S.A.). Female mice of DBA/1j strain (product of Nippon Charles River, Japan) were immunized by injection at the base of the tail with 150 μg of the emulsified collagen. After twenty one days from the immunization, arthritis was induced by a booster immunization of 150 μg of the emulsified collagen prepared in the same manner as above at the base of the tail again. Test compounds were administered orally at a dose of 10 mg/kg on 5 consecutive days in a week for 8 weeks, beginning from the day before the immunization. Mice were monitored visually for arthritis once a week beginning from the day of the booster immunization. The severity of arthritis was estimated by the sum of the scores of all 4 paws.

[5] = Light and dark box test (anti-anxiety effect); format: in vivo, mouse (Std-ddY, male); settings: Mus musculus, 0.5 h; oral, 30 min before test; mice; p<0.05 vs vehicle; read-out: Anti-anxiety effect MED (minimum effective dose)
Text: Experiment 2: Light and dark box test (anti-anxiety effect)
Anti-anxiety effect of test compounds was examined in a box with light and dark compartments according to the method of Crawley, J. and Goodwin, F. K. [cf. Pharmacol. Biochem. Behav. 13, 167-170 (1980)] with slight modification.
Light and dark box test is a useful, simple and handy method for behaviorally and pharmacologically examining anti-anxiety effect of the drugs, by utilizing the habit of rodents such as mice and rats, etc. which prefer to stay in a dark place, and regarding as positive drug effect the increase of the relative stay of the animals in the light compartment which is an uncomfortable place for the animals.
Light and dark box test was carried out using the test box device (35×15×17 cm) which comprises: a light compartment (20×15×17 cm) consisting of transparent acrylic plates and highly illuminated by an incandescent lamp (1,700 lux); a dark compartment (15×15×17 cm) being made of black acrylic plates connected to the light compartment; and at the boundary of compartments, an opening (4.4×5 cm) in which mice can go through freely between two compartments.
Male mice of Std-ddY strain weighing 25-30 g were used in a group of 10. Each trial was started by placing a mouse in the center of the light compartment 30 minutes after oral administration of a test compound, and the time spent by the mouse in the light compartment during a 5 minute observation period was measured, and the rate of the stay of mice in the light compartment to the whole time spent in the experiment was calculated. The increasing rate of the relative stay of the test compound to that of the vehicle control group was yielded, based on the rate of the stay of mice in the light compartment.
The anti-anxiety effect of the test compound was represented by the minimum effectivetive dose (MED) at which the increasing rate of the relative stay was regarded statistically as significant (Williams-Wilcoxon's test, p<0.05).

[6] = Isoniazid-induced clonic convulsion test (anti-convulsant effect); format: in vivo, mouse (Std-ddY, male); settings: Mus musculus, 0.5 h; oral, 30 min before isoniazid 200 mg/kg s.c.; mice; read-out: Anti-isoniazid effect ED25 (dose which prolonged the onset time of clonic convulsion by 25%)
Text: Experiment 3: Isoniazid-induced clonic convulsion test (anti-convulsant effect)
Isoniazid inhibits glutamate decarboxylase which catalyzes GABA synthesis, deases brain GABA levels, and induces clonic convulsion. According to the method of Auta, J. et al. [cf. J. Pharmacol. Exp. Ther. 265, 649-656 (1993)] with slight modification, we examined antagonistic effect of the test compounds on isoniazid-induced clonic convulsion. […] Those are BZ anxiolytics represented by diazepam, neurosteroids such as allopregnanolone, allotetrahydrodeoxycortico-sterone(THDOC) and BZω3 receptor agonists which enhance the synthesis of neurosteroids.
Male mice of Std-ddY strain weighing 22-24 g were used in a group of 6. Thirty minutes after oral administration of the test compounds, mice were injected with isoniazid (200 mg/kg, s.c.), and immediately thereafter, placed individually in acrylic observation cages. The onset time of clonic convulsion was measured (cut-off time: 90 minutes). The latency in the control group was about 40 minutes.
Anti-isoniazid effect of the test compounds was expressed as the dose which prolonged the onset time by 25% compared to that in the vehicle group (ED25). The ED25 value was calculated according to the Litchfield-Wilcoxon's method.

| SMILES | IC50 [2] [nM] | minimal effective dose [5] [mg/kg] | ED25 [6] [mg/kg] | also measured |
| --- | --- | --- | --- | --- |
| CCCN(CCC)C(=O)CNc1cc(-c2ccccc2)nc(-c2ccccc2)n1 [Example 93, 2-(2,6-Diphenyl-4-pyrimidinylamino)-N,N-dipropylacetamide] | 4.1 |  |  | severity of arthritis (arthritic score) versus control group [1]: much lower than the control group; onset of arthritis delayed until (days after the booster immunization) [1]: 40 days; effect on collagen-induced arthritis inhibitory test (conclusion) [1]: potent effect |
| CN1C(=O)CN=C(c2ccccc2)c2cc(Cl)ccc21 [diazepam] |  |  |  | effect in isoniazid-induced clonic convulsion test (known drugs) [3]: positive effect |
| CCN(C(=O)COc1nc(-c2ccc(N)cc2)nc(C)c1C)c1ccccc1 [Example 165, 2-[2-(4-aminophenyl)-5,6-dimethyl-4-pyrimidinyloxy]-N-ethyl-N-phenylacetamide] | 5.07 |  |  | suppression of arthritis as compared with control ([4]; 10 mg/kg oral, 5 days a week): markedly suppressed the arthritis as compared with control group; effect on collagen-induced arthritis inhibitory test (conclusion) [4]: potent effect |
| Cc1nc(-c2ccc(Cl)cc2)nc(NCC(=O)N(C)c2ccccc2)c1C [Example 23, 2-[2-(4-Chlorophenyl)-5,6-dimethyl-4-pyrimidinylamino]-N-methyl-N-phenylacetamide] | 1.76 | 0.01 | 40.8 |  |
| CC(=O)[C@H]1CC[C@H]2[C@@H]3CC[C@H]4C[C@H](O)CC[C@]4(C)[C@H]3CC[C@]12C [allopregnanolone] |  |  |  | effect in isoniazid-induced clonic convulsion test (known drugs) [3]: positive effect |
| Cc1nc(-c2ccc(Cl)cc2)nc(OCC(=O)N(C)c2ccccc2)c1C [Example 144, 2-[2-(4-Chlorophenyl)-5,6-dimethyl-4-pyrimidinyloxy]-N-methyl-N-phenylacetamide] | 0.31 |  |  | severity of arthritis (arthritic score) versus control group [1]: much lower than the control group; onset of arthritis delayed until (days after the booster immunization) [1]: 37 days; effect on collagen-induced arthritis inhibitory test (conclusion) [1]: potent effect |
| CCCN(C(=O)CNc1nc(-c2ccccc2)nc(C)c1C)c1ccccc1 [Example 52, 2-(5,6-Dimethyl-2-phenyl-4-pyrimidinylamino)-N-phenyl-N-propylacetamide] | 29.5 | 0.1 | 23.5 |  |
| CCCN(CCC)C(=O)CNc1nc(-c2ccc(C(F)(F)F)cc2)nc(C)c1C [Example 6, 2-[5,6-Dimethyl-2-(4-trifluoromethylphenyl)-4-pyrimidinylamino]-N,N-dipropylacetamide] | 0.23 | 0.3 |  | onset of arthritis delayed until (days after the booster immunization) ([4]; 10 mg/kg oral, 5 consecutive days a week for 8 weeks): 21 days; severity of arthritis versus control group ([4]; 10 mg/kg oral, 5 days a week, at least until day 34, last day of the experiment): much lower than the control group; effect on collagen-induced arthritis inhibitory test (conclusion) [4]: potent effect |
| C[C@]12CC[C@@H](O)C[C@@H]1CC[C@@H]1[C@@H]2CC[C@]2(C)[C@@H](C(=O)CO)CC[C@@H]12 [THDOC, allotetrahydrodeoxycorticosterone] |  |  |  | effect in isoniazid-induced clonic convulsion test (known drugs) [3]: positive effect |
| Cc1nc(-c2ccccc2)nc(NCC(=O)N(C)c2ccc(Br)cc2)c1C [Example 37] | 1.66 | 0.1 | 61.9 |  |
| CCCN(CCC)C(=O)COc1nc(-c2ccccc2)nc(C)c1C [Example 136, 2-(5,6-dimethyl-2-phenyl-4-pyrimidinyloxy)-N,N-dipropylacetamide] | 0.34 | 0.3 |  | severity of arthritis (arthritic score) versus control group [1]: much lower than the control group; onset of arthritis delayed until (days after the booster immunization) [1]: 34 days; effect on collagen-induced arthritis inhibitory test (conclusion) [1]: potent effect |
| CCCN(CCC)C(=O)CNc1nc(-c2ccccc2)nc(C)c1C [Example 1, 2-(5,6-dimethyl-2-phenyl-4-pyrimidinylamino)-N,N-dipropylacetamide] | 3.1 | 0.3 | 82.2 |  |
| CCCN(C(=O)COc1nc(-c2ccccc2)nc(C)c1C)c1ccccc1 [Example 178, 2-(5,6-Dimethyl-2-phenyl-4-pyrimidinyloxy)-N-phenyl-N-propylacetamide] | 0.57 |  |  | suppression of arthritis as compared with control ([4]; 10 mg/kg oral, 5 days a week): the arthritis was suppressed as compared with the control; effect on collagen-induced arthritis inhibitory test (conclusion) [4]: less potent effect |
| Cc1nc(-c2ccccc2)nc(NCC(=O)N(C)c2ccccc2)c1C [Example 22] | 3.26 | 0.3 | 50.3 |  |
| Cc1nc(-c2ccccc2)nc(NCC(=O)N(C)c2ccc(Cl)cc2)c1C [Example 29, N-(4-Chlorophenyl)-N-methyl-2-(5,6-dimethyl-2-phenyl-4-pyrimidinylamino) a cetamide] | 0.85 | 0.03 | 67.5 |  |
| CCCN(CCC)C(=O)CNc1nc(-c2ccc(Cl)cc2)nc(C)c1C [Example 2, 2-[2-(4-Chlorophenyl)-5,6-dimethyl-4-pyrimidinylamino]-N,N-dipropylacetamide] | 0.97 | 0.01 | 65.6 |  |
| COc1ccc(N(C)C(=O)CNc2nc(-c3ccc(Cl)cc3)nc(C)c2C)cc1 [Example 42, 2-[2-(4-Chlorophenyl)-5,6-dimethyl-4-pyrimidinylamino]-N-(4-methoxyphenyl)-N-methylacetamide] | 2.15 | < 0.01 | 58.7 |  |
| CCN(CC)C(=O)CNc1nc(-c2ccc(Cl)cc2)nc(C)c1C [Example 10, 2-[2-(4-Chlorophenyl)-5,6-dimethyl-4-pyrimidinylamino]-N,N-diethylacetamide] | 0.7 | 1 | 36.9 |  |
| CCN(C(=O)CNc1nc(-c2ccc(Cl)cc2)nc(C)c1C)c1ccccc1 [Example 45, 2-[2-(4-Chlorophenyl)-5,6-dimethyl-4-pyrimidinylamino]-N-ethyl-N-phenylacetamide] | 0.7 | 0.1 | 9.6 |  |

Source: patent publication US5972946A, “Acetamide derivative, process for preparing the same, and a pharmaceutical composition containing the same” (Dainippon Pharmaceutical Co., Ltd., priority 1995, dated 1999)
